Data published in patent publication US9713615B2, “Tetrahydroisoquinolin-2-yl-(quinazolin-4-yl)methanone compounds” (Rexahn Pharmaceuticals, Inc., priority 2013, dated 2017).

Assays:
SK-MEL-28 (melanoma) = test: SRB growth inhibition assay, SK-MEL-28; type: cell-based; conditions: Homo sapiens, 96 hours incubation, read-out: Inhibition of cell growth (IC50, μM) SK-MEL-28
Source text: (§1) Cancer cells used in this study to determine the effect of tetrahydroisoquinolin-2-yl-(quinazolin-4-yl)methanone compounds were obtained from the following sources: Human OVCAR-3 (ovary), SK-MEL-28 (melanoma), MDA-MB-231 (breast), HeLa (cervix), PC3 (prostate), HepG2 (liver), A549 (lung), Caki-1 (kidney), HCT116 (colon) and PANC-1 (pancreas) from the American Type Culture Collection (ATCC) (Manassas, Va.); U251 (brain) from Riken (Japan); MKN-45 (stomach) from DSMZ (Germany). All cell lines except MDA-MB-231, HCT116, Caki-1 and PANC-1 were grown in RPMI1640 medium (Invitrogen, Carlsbad, Calif.) supplemented with 10% fetal bovine serum (“FBS”), 1 mM sodium pyruvate, 10 mM HEPES and 100 U/ml penicillin and 100 μg/ml streptomycin (“P/S”). MDA-MB-231, HCT116, Caki-1 and PANC-1 cells were maintained in Dulbecco's modified Eagle's medium (“DMEM”, Invitrogen) supplemented with 10% FBS, P/S, 10 mM HEPES and 2 mM L-glutamine. All cells were incubated at 37° C. under humidified 5% CO2.
(§2) The growth inhibition of the tetrahydroisoquinolin-2-yl-(quinazolin-4-yl)methanone compounds against a variety of human tumor cells was evaluated to study the relative importance of particular substituent groups on the compounds. The tetrahydroisoquinolin-2-yl-(quinazolin-4-yl)methanone compounds, prepared as described above, were tested with DMSO as a control.
(§3) The growth inhibition assay of representative tetrahydroisoquinolin-2-yl-(quinazolin-4-yl)methanone derivatives against human tumor cell lines was performed using the Sulforhodamine B (“SRB”) method (Skehan et al., J. National Cancer Institute, 82: 1107-1112 (1990)). Briefly, exponentially growing tumor cells were seeded into a 96-well plate at a density of 2-3×10^3 cells/well and treated with tetrahydroisoquinolin-2-yl-(quinazolin-4-yl)methanone compounds the next day. Triplicate wells were used for each treatment. The cells were incubated with the various compounds for 96 hours at 37° C. in a humidified 5% CO2 atmosphere. After 96-hour incubation, cells were fixed with 10% trichloroacetic acid (“TCA”), incubated for 1 hour at 4° C., and washed 3 times with tap water. Subsequently, cells were stained with 0.4% sulforhodamine B in 1% acetic acid for 30 minutes, washed 4 times with 1% acetic acid, and air-dried again After 5 minutes agitation in 10 mM Tris solution, the absorbance of each well was measured at 530 nm using Benchmark Plus Microplate reader (Bio-Rad Laboratories, Hercules, Calif.).
(§4) To translate the OD530 values into the number of live cells in each well, the OD530 values were compared to those on standard OD530-versus-cell number curves generated for each cell line. The percent survival was calculated using the formula: % Survival=live cell number [test]/live cell number [control]×100
(§5) The IC50 values were calculated by non-linear regression analysis.

HeLa (cervix) = test: SRB growth inhibition assay, HeLa; type: cell-based; conditions: Homo sapiens, 96 hours incubation, read-out: Inhibition of cell growth (IC50, μM) HeLa
Source text: as §1, §2, §3, §4, §5

HCT116 (colon) = test: SRB growth inhibition assay, HCT116; type: cell-based, Human; conditions: Homo sapiens, HCT-116, 96 hours incubation, read-out: Inhibition of cell growth (IC50, μM) HCT116
Source text: as §1, §2, §3, §4, §5
(§6) The compounds were screened against at […] including PANC-1, MDA-MB-231, HCT116 and Caki-1, at approximately 1 μM concentration. The inhibition of cell growth (IC50, μM) of some tetrahydroisoquinolin-2-yl-(quinazolin-4-yl)methanone compounds are shown in Table 2.

OVCAR-3 (ovary) = test: SRB growth inhibition assay, OVCAR-3; type: cell-based; conditions: Homo sapiens, 96 hours incubation, read-out: Inhibition of cell growth (IC50, μM) Ovcar3
Source text: as §1, §2, §3, §4, §5

U251 (brain) = test: SRB growth inhibition assay, U251; type: cell-based; conditions: Homo sapiens, U-251, 96 hours incubation, read-out: Inhibition of cell growth (IC50, μM) U251
Source text: as §1, §2, §3, §4, §5

MDA-MB-231 (breast) = test: SRB growth inhibition assay, MDA-MB-231; type: cell-based, Human; conditions: Homo sapiens, MDA-MB-231, 96 hours incubation, read-out: Inhibition of cell growth (IC50, μM) MDA-MB-231
Source text: as §1, §2, §3, §4, §5, §6

PANC-1 (pancreas) = test: SRB growth inhibition assay, PANC-1; type: cell-based, Human; conditions: Homo sapiens, PANC-1, 96 hours incubation, read-out: Inhibition of cell growth (IC50, μM) Panc-1
Source text: as §1, §2, §3, §4, §5, §6

Caki-1 (kidney) = test: SRB growth inhibition assay, Caki-1; type: cell-based, Human; conditions: Homo sapiens, CAKI-1, 96 hours incubation, read-out: Inhibition of cell growth (IC50, μM) Caki-1
Source text: as §1, §2, §3, §4, §5, §6

HepG2 (liver) = test: SRB growth inhibition assay, HepG2; type: cell-based; conditions: Homo sapiens, 96 hours incubation, read-out: Inhibition of cell growth (IC50, μM) HepG2
Source text: as §1, §2, §3, §4, §5

MKN-45 (stomach) = test: SRB growth inhibition assay, MKN-45; type: cell-based; conditions: Homo sapiens, 96 hours incubation, read-out: Inhibition of cell growth (IC50, μM) MKN-45
Source text: as §1, §2, §3, §4, §5

PC3 (prostate) = test: SRB growth inhibition assay, PC3; type: cell-based; conditions: Homo sapiens, 96 hours incubation, read-out: Inhibition of cell growth (IC50, μM) PC-3
Source text: as §1, §2, §3, §4, §5

Row | SMILES | IC50 (SK-MEL-28 (melanoma)) [µM] | IC50 (HeLa (cervix)) [µM] | IC50 (HCT116 (colon)) [µM] | IC50 (OVCAR-3 (ovary)) [µM] | IC50 (U251 (brain)) [µM] | IC50 (MDA-MB-231 (breast)) [µM] | IC50 (PANC-1 (pancreas)) [µM] | IC50 (HepG2 (liver)) [µM] | IC50 (MKN-45 (stomach)) [µM] | IC50 (PC3 (prostate)) [µM] | IC50 (Caki-1 (kidney)) [µM]
1 | CC(=O)Nc1ccc(-c2nc(C(=O)N3CCc4c(ccc(C)c4O)C3)c3ccccc3n2)cc1 [Compound 64, 2-[[2-(4-acetamidophenyl)quinazolin-4-yl]carbonyl]-5-hydroxy-6-methyl-1,2,3,4-tetrahydroisoquinoline] | – | – | 0.89 | – | – | 0.52 | 0.68 | – | – | – | 0.63
2 | COc1ccc2c(c1OC)CCN(C(=O)c1nc(-c3ccncn3)nc3ccccc13)C2 [Compound 72, 2-[[2-(4-pyrimidinyl)quinazolin-4-yl]carbonyl]-5,6-dimethoxy-1,2,3,4-tetrahydroisoquinoline] | – | – | 0.55 | – | – | 0.46 | 0.49 | – | – | – | 0.39
3 | COc1ccc2c(c1O)CCN(C(=O)c1nc(-c3cscn3)nc3ccccc13)C2 [Compound 79, 2-[[2-(4-thiazolyl)quinazolin-4-yl]carbonyl]-5-hydroxy-6-methoxy-1,2,3,4-tetrahydroisoquinoline] | – | – | 0.2 | – | – | 0.17 | 0.17 | – | – | – | 0.16
4 | COc1ccc2c(c1OC)CCN(C(=O)c1nc(-c3cscn3)nc3ccccc13)C2 [Compound 81, 2-[[2-(4-thiazolyl)quinazolin-4-yl]carbonyl]-5,6-dimethoxy-1,2,3,4-tetrahydroisoquinoline] | – | – | 1.26 | – | – | 1 | 1.43 | – | – | – | 1.21
5 | Cc1ccc2c(c1O)CCN(C(=O)c1nc(-c3cscn3)nc3ccccc13)C2 [Compound 83, 2-[[2-(4-thiazolyl)quinazolin-4-yl]carbonyl]-5-hydroxy-6-methyl-1,2,3,4-tetrahydroisoquinoline] | – | – | 0.29 | – | – | 0.21 | 0.23 | – | – | – | 0.25
6 | COc1ccc2c(c1O)CCN(C(=O)c1nc(-c3ccc(F)cc3)nc3ccc(F)cc13)C2 [Compound 97, 2-[[6-fluoro-2-(4-fluorophenyl)quinazolin-4-yl]carbonyl]-5-hydroxy-6-methoxy-1,2,3,4-tetrahydroisoquinoline] | 0.11 | 0.16 | 0.17 | 0.073 | 0.13 | 0.16 | 0.13 | 0.18 | 0.087 | – | 0.11

Continued by falling IC50 (HCT116 (colon)), values first:

Row | IC50 (SK-MEL-28 (melanoma)) [µM] | IC50 (HeLa (cervix)) [µM] | IC50 (HCT116 (colon)) [µM] | IC50 (OVCAR-3 (ovary)) [µM] | IC50 (U251 (brain)) [µM] | IC50 (MDA-MB-231 (breast)) [µM] | IC50 (PANC-1 (pancreas)) [µM] | IC50 (HepG2 (liver)) [µM] | IC50 (MKN-45 (stomach)) [µM] | IC50 (PC3 (prostate)) [µM] | SMILES | IC50 (Caki-1 (kidney)) [µM]
7 | – | – | 1.12 | – | – | 0.67 | 0.93 | – | – | – | Cc1ccc2c(c1O)CCN(C(=O)c1nc(-c3cccnc3)nc3ccccc13)C2 [Compound 88, 2-[[2-(3-pyridinyl)quinazolin-4-yl]carbonyl]-5-hydroxy-6-methyl-1,2,3,4-tetrahydroisoquinoline] | 0.97
8 | 0.36 | 0.24 | 1.1 | 0.16 | 0.64 | 0.9 | 0.53 | 0.72 | 0.19 | – | COc1ccc2c(c1)CCN(C(=O)c1nc(-c3ccc(F)cc3)nc3ccccc13)C2 [Compound 7, 2-[[2-(4-fluorophenyl)quinazolin-4-yl]carbonyl]-6-methoxy-1,2,3,4-tetrahydroisoquinoline] | 0.61
9 | – | – | 0.26 | – | – | 0.21 | 0.2 | – | – | – | Cc1ccc2c(c1O)CCN(C(=O)c1nc(-c3ccncn3)nc3ccccc13)C2 [Compound 73, 2-[[2-(4-pyrimidinyl)quinazolin-4-yl]carbonyl]-5-hydroxy-6-methyl-1,2,3,4-tetrahydroisoquinoline] | 0.19
10 | 0.2 | – | 0.22 | 0.23 | 0.17 | 0.17 | 0.19 | 0.31 | – | 0.21 | COc1ccc2c(c1O)CCN(C(=O)c1nc(-c3ccc(F)cc3F)nc3ccccc13)C2 [Compound 57, 2-[[2-(2,4-difluorophenyl)quinazolin-4-yl]carbonyl]-5-hydroxy-6-methoxy-1,2,3,4-tetrahydroisoquinoline] | 0.21
